Assays:
[1] = biological target: human MT2 receptor membrane protein (Homo sapiens (Human), UniProt P49286); experiment: MT2 receptor binding test ([3H]-Melotonin competition)
Protocol: The receptors included a MT1/MT2 receptor and a 5-HT2C receptor. The test was divided into two parts: prescreening and rescreening. The results of prescreening were expressed as the percentage of binding, and the results of rescreening were expressed as the IC50 value (in M, i.e., mol/L).
(3) Tris-HCl buffer formulation: 50 mM Tris-HCl Buffer, 1 mM EDTA, 5 mM MgCl2, 0.1% NaN3, and then a certain proportion of PMSF was added to make pH 7.4.
(4) The example compound to be tested was dissolved in DMSO and formulated as a stock solution of 10^−2 M, and then diluted with distilled water to a concentration gradient of […]. The prescreening of the MT receptor binding test was performed at the concentration of 10^−5 M; the prescreening of the 5-HT2C receptor binding test was performed at the concentrations of 10^−5 and 10^−7 M.
The statistical analysis was performed using GraphPad Prism 5.0 software. The formula for receptor binding test was: inhibition (%)=[(total CPM of binding−CPM of tube with drug)/(total CPM of binding−non-specific CPM)]×100%, wherein CPM was count of a radioactive intensity.
10 μL of receptor membrane protein MT1 or MT2 was added to all the tubes. In non-specific binding tubes, 50 μL of a corresponding unlabeled ligand Ago at a concentration of 10^4 M was added to a final concentration of 10 μM, and pre-reacted for 30 minutes. In test tubes, 30 μL of test drug (MT1: a concentration of 10^4-10^−10 M, MT2: a concentration of […]) was added, respectively; all tubes were added with 40 μL [^3H]-Melotonin, respectively. […] The filter paper was taken out and dried by baking, and then placed in a scintillation bottle. 1 mL of the scintillation liquid was added, and the radioactive intensity was measured by a liquid scintillation counter.

chronic stress rat [2] = experiment: Chronic unpredictable stress model of rat: sucrose preference test; assay type: in vivo; conditions: for Sucrose preference (%) Before modeling: baseline before modeling; for Sucrose preference (%) After 4 weeks of administration: stress rats
Protocol: (§1) Animals: SD rats, male, weighing 150-180 g, SPF grade.
(§2) Formulation and administration mode of drugs: All drugs for the test were suspended and dispersed with a 0.5% aqueous solution of CMC-Na, and shaken well before use. The rats were administered by i.g. at a volume of 10 mL/kg.
(§3) Rats were acclimatized for 3 days after purchase. First, 48 h of sucrose training was performed. After the training, a sucrose baseline test was performed. The rats were randomly and evenly grouped according to sucrose preference. Then, (dl) a 4-week chronic unpredictable stress (CUS) procedure was performed with the following stress methods: (1) food deprivation (fasting); (2) water deprivation; (3) stroboflash; (4) overnight illumination; (5) wet feeding (200 ml of water was added to 150 g of sawdust bedding); (6) noise stimulation (110 dB), 1 h; (7) swimming in cold water (the water temperature was 10° C.); (8) cage tilt (45 degrees of inclination); (9) tail pinch (at 1 cm away from the tail root) for 6 min; (10) restraint for 1-2 h. One of the above stress methods was used randomly every day, but water deprivation and fasting were separated. The corresponding drugs (including the blank control group and the positive drug group) were given 1 h before the stress in the morning every day. Behavior test was performed after the end of the chronic stress. d25, sucrose preference; d28, open-field; d31, novelty-suppressed feeding test.
Rats were acclimatized for 3 days after purchase. The rats were trained to give sucrose aqueous solution for 48 h without food and water supply, only 1% aqueous solution of sucrose was given for the first 24 h, and 1% aqueous solution of sucrose and tap water were simultaneously given for the next 24 h. After the end of the training, the rats were fed with normal food and water for 3 days, and then a sucrose preference baseline was determined: after fasting and water deprivation for 14 h, rats were allowed to drink freely two different bottles of water, one of which was 1% aqueous solution of sucrose and the other was tap water. The intakes (g) of rats from these two bottles within 1 hour were measured to calculate the sucrose preference. Sucrose preference (%)=intake of aqueous solution of sucrose/(intake of aqueous solution of sucrose+intake of tap water)×100%. On the 25th day of the stress program, the same method was used to perform the sucrose preference test again to calculate the sucrose preference.

chronic stress rat [3] = experiment: Chronic unpredictable stress model of rat: novelty-suppressed feeding test; assay type: in vivo; conditions: stress rats, day 31
Protocol: as §1, §2, §3
On the 29th day of the stress program, the rats were fasted for 48 hours (not water deprivation) and then subjected to a novelty-suppressed feeding test (d31). The rats were placed in a novelty-suppressed feeding chamber with an open top. The bottom of the chamber was covered with a 2 cm thick sawdust. In the center of the chamber were placed 12 food balls of the same size. At the same time as the rats were put in, the latency of the rats to start eating within 5 min was calculated. The criterion for eating was that the animal started chewing food instead of just sniffing or toying with food. Rats that had not eaten within 5 minutes were recorded to have a feeding latency of 5 minutes. The test environment of the test should be kept as quiet as possible; the rats should be placed in the same position and direction each time; the environment of the test was preferably different from the breeding environment, and the light intensity of the test environment was greater than that of the breeding environment.

SD rats = experiment: Anxiety behavior model of repeatedly administrated rat: O-maze test; assay type: in vivo; conditions: D21, 5 minutes
Protocol: The requirements for test animals, drug formulation and administration were the same as those of the rat chronic mild stress model.
Instruments: Vogel drinking anxiety device for rat and O-maze device for rat were manufactured by Shanghai XinRuan Company. The rat feeding chamber was a home-made white plastic box (60×45×25 cm).
The rats were administrated continuously by i.g. once a day. A novelty-suppressed feeding test, a Vogel drinking conflict test, and an O-maze test were performed on a different day, respectively. Each behavior test was performed at 9:00-12:00, and the administration time was 16:00-17:00. The test process was as follows: D12, novelty-suppressed feeding test (animals were fasted for 48 hours before the test); D18, Vogel drinking conflict test (animals were banned from water for 48 hours before the test); D21, O-maze test.
An O-maze device was placed in the center of a dark room and illuminated with an infrared light during the test. The animal was placed in the center of a closed arm of an O-maze track, timed for 5 minutes, and the activity of the rat in the maze was monitored by an infrared camera. Animals in each group were given a single intragastric administration 60 min before the test. Observation indicators were the number of times the rat entered the open arm and the accumulated dwell time in the open arm.

CYP2C9 = CYP2C9 (Homo sapiens (Human), UniProt P11712); conditions: first-pass effect of the liver; cited from earlier work
Sequence of CYP2C9 (P11712 whole entry): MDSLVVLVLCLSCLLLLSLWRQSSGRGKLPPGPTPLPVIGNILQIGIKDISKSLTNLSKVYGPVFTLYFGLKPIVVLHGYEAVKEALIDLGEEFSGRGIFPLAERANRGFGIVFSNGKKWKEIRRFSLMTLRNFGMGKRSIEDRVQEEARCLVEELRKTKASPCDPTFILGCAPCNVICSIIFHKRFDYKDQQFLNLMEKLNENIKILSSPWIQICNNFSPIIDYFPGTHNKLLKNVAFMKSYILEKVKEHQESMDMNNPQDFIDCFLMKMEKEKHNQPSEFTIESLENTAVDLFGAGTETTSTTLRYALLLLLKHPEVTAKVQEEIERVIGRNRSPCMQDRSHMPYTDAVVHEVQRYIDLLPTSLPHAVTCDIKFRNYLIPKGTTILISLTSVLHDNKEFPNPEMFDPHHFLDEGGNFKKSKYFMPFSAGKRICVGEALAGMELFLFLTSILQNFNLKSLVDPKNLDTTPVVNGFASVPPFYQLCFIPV

Sequence of human MT2 receptor membrane protein (P49286 whole entry): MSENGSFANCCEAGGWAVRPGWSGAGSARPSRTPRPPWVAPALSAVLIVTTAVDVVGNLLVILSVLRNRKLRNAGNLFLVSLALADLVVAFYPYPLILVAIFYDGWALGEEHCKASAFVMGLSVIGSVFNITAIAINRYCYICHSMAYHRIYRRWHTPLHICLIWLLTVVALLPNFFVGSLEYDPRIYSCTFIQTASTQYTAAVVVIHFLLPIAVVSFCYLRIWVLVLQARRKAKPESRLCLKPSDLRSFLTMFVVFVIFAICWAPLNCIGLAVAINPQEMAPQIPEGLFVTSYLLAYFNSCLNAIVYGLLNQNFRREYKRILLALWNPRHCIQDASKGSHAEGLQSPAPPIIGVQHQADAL

Compound	Sucrose preference (%) Before modeling (chronic stress rat [2]; group later dosed 20 mg/kg)	Sucrose preference (%) After 4 weeks of administration (chronic stress rat [2]; 10 mg/kg i.g. daily)	Sucrose preference (%) After 4 weeks of administration (chronic stress rat [2]; 20 mg/kg i.g. daily)	Sucrose preference (%) After 4 weeks of administration (chronic stress rat [2]; 40 mg/kg i.g. daily)	Feeding latency (chronic stress rat [3]; 10 mg/kg i.g. daily)	Feeding latency (chronic stress rat [3]; 20 mg/kg i.g. daily)	Feeding latency (chronic stress rat [3]; 40 mg/kg i.g. daily)	Dwell time in the open arm (SD rats; 10 mg/kg i.g.)	Number of times entering the open arm (SD rats; 10 mg/kg i.g.)	Dwell time in the open arm (SD rats; 20 mg/kg i.g.)	Number of times entering the open arm (SD rats; 20 mg/kg i.g.)	Dwell time in the open arm (SD rats; 40 mg/kg i.g.)	Number of times entering the open arm (SD rats; 40 mg/kg i.g.)	other results
[2H]C([2H])([2H])Oc1cc2c(CCNC(C)=O)cccc2cc1Cl [Example 1, N-(2-(6-chloro-7-deuteromethoxy-naphthalen-1-yl)ethyl)acetamide]	60.1 ± 4.4%	78.4 ± 4.4 %	78.8 ± 6.1 %	83.3 ± 1.9 %	145 ± 23 s	115 ± 16 s	117 ± 14 s	201 ± 17 s	8.8 ± 0.9	245 ± 6 s	10.89 ± 0.7	171 ± 27 s	6.3 ± 1.1	MT2 binding ratio (I %) ([1]; prescreening, 10^−5 M): 98%; IC50 ([1]; rescreening): 0.72 ± 0.13 nM; Sucrose preference (%) Before modeling (chronic stress rat [2]; group later dosed 5 mg/kg): 55.5 ± 7.8%; Sucrose preference (%) After 4 weeks of administration (chronic stress rat [2]; 5 mg/kg i.g. daily): 80.4 ± 3.1 %; Feeding latency (chronic stress rat [3]; 5 mg/kg i.g. daily): 188 ± 21 s; Dwell time in the open arm (SD rats; 5 mg/kg i.g.): 131 ± 30 s; Number of times entering the open arm (SD rats; 5 mg/kg i.g.): 4.8 ± 0.9
COc1ccc2cccc(CCNC(C)=O)c2c1 [Agomelatine, reference compound]	65.6 ± 10.1%	84.3 ± 3.6 %	66.6 ± 6.7%	76.1 ± 5.3 %	248 ± 21 ^ s	164 ± 26 s	130 ± 17 s	126 ± 15 s	2.25 ± 0.4	196 ± 30 s	3.1 ± 0.8	170 ± 29 s	6.2 ± 1.0	share metabolized by CYP2C9 (CYP2C9): about 10%

From patent publication US11980598B2, “N-(2-(substituted-naphth-1-yl)ethyl) substituted amide compound, preparation and uses thereof” (BEIJING GREATWAY PHARMACEUTICAL TECHNOLOGY CO., LTD., priority 2017, dated 2024)
